Laboratory results: US10231954B2, “Neurodegenerative therapies” (LYTIX BIOPHARMA AS, priority 2014, dated 2019)

Assays:
Assay type in all cases: biochemical
SmMLCK = SmMLCK (Homo sapiens, UniProt Q15746); experiment: Kinase profiling SmMLCK; details: 100 micromolar inhibitor concentration; 100 is no change; read-out: residual kinase activity, SmMLCK
CK2 = experiment: Kinase profiling CK2; details: 100 micromolar inhibitor concentration; 100 is no change
From the text: (§1) Any value less that 25 is considered to be highly significant inhibition.

ERK1 = ERK1 (Homo sapiens, UniProt P27361); experiment: Kinase profiling ERK1; details: for residual kinase activity, ERK1: 100 micromolar inhibitor concentration, 100 is no change
Chain of ERK1 (P27361 whole entry, species assumed): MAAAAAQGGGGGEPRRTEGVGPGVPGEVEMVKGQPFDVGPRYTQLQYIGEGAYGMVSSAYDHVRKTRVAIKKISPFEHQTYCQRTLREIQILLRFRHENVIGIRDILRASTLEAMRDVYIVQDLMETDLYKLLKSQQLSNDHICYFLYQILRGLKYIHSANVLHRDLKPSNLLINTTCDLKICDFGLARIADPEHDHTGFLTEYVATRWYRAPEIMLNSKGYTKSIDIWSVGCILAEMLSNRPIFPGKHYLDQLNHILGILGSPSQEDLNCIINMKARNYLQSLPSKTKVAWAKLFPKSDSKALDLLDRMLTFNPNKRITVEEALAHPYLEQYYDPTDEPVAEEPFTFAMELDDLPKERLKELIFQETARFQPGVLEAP
From the text: as §1

HER4 = HER4 (Homo sapiens, UniProt Q15303); experiment: Kinase profiling HER4; details: read-out: residual kinase activity, HER4
From the text: as §1

SYK = SYK (Homo sapiens, UniProt P43405); experiment: Kinase profiling SYK; details: read-out: residual kinase activity, SYK
From the text: as §1

p38d MAPK = molecular target: T1, p38d MAPK (Homo sapiens, UniProt O15264); experiment: Kinase profiling p38d MAPK; details: for residual kinase activity, p38d MAPK: 100 micromolar inhibitor concentration, 100 is no change
T1 sequence (O15264 1-365): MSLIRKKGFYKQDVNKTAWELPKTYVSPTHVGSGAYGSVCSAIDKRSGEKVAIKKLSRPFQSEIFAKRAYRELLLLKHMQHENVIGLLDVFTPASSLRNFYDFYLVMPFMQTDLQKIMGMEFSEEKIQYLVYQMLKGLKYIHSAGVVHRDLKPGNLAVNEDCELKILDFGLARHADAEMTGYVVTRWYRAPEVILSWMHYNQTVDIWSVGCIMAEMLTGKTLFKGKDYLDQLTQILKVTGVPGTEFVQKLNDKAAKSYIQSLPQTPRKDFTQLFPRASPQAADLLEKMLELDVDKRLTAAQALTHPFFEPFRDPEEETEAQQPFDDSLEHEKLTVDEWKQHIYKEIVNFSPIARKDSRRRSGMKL
From the text: as §1

p38g MAPK = molecular target: T2, p38g MAPK (Homo sapiens, UniProt P53778); experiment: Kinase profiling p38g MAPK; details: for residual kinase activity, p38g MAPK: 100 micromolar inhibitor concentration, 100 is no change
T2 sequence (P53778 1-367): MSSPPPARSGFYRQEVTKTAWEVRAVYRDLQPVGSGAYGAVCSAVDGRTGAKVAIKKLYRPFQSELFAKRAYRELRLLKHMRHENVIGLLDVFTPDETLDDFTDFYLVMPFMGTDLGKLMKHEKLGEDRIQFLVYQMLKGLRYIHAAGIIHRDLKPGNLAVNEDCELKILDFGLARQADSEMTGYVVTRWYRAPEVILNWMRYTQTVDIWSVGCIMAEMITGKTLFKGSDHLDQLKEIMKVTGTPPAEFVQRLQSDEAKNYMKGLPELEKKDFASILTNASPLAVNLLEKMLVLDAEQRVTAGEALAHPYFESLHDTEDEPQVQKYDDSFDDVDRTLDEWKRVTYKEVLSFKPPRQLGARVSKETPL
From the text: as §1

JNK2 = JNK2 (Homo sapiens, UniProt P45984); experiment: Kinase profiling JNK2; details: for residual kinase activity, JNK2: 100 micromolar inhibitor concentration, 100 is no change
Chain of JNK2 (P45984 whole entry, species assumed): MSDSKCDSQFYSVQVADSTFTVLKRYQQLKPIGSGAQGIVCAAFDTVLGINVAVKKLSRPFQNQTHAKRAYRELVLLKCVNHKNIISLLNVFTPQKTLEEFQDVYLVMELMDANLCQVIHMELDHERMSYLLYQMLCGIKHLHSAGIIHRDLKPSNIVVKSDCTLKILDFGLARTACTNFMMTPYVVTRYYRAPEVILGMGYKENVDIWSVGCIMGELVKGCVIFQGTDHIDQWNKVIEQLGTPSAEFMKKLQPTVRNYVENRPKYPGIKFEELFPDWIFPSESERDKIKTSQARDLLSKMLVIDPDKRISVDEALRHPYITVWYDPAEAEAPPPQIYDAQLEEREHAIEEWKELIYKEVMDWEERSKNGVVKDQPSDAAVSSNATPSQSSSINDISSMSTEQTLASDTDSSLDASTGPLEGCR
From the text: as §1

RSK1 = RSK1 (Homo sapiens, UniProt Q15418); experiment: Kinase profiling RSK1; details: for residual kinase activity, RSK1: 100 micromolar inhibitor concentration, 100 is no change
Chain of RSK1 (Q15418 whole entry, species assumed): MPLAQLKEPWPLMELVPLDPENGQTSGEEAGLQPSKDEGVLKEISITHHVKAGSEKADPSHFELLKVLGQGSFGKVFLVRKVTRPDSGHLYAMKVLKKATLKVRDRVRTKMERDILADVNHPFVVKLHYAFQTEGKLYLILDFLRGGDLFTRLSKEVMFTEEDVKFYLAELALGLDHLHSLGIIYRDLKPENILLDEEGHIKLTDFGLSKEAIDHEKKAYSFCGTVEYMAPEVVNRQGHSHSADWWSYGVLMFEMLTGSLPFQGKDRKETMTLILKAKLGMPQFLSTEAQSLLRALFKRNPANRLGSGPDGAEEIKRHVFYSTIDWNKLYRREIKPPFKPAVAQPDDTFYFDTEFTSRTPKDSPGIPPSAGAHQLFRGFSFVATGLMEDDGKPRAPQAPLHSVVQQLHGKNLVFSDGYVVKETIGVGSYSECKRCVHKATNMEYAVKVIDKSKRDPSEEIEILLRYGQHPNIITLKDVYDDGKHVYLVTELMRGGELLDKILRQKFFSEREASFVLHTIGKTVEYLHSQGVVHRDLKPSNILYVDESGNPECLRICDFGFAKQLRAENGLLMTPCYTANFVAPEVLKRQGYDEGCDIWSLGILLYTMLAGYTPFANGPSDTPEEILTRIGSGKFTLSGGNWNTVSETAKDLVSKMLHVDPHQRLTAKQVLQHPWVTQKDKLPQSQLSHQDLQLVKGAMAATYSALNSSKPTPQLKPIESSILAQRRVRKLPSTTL
From the text: as §1

TTK = molecular target: T3, TTK (Homo sapiens, UniProt P33981); experiment: Kinase profiling TTK; details: read-out: residual kinase activity, TTK
T3 sequence (P33981 1-857): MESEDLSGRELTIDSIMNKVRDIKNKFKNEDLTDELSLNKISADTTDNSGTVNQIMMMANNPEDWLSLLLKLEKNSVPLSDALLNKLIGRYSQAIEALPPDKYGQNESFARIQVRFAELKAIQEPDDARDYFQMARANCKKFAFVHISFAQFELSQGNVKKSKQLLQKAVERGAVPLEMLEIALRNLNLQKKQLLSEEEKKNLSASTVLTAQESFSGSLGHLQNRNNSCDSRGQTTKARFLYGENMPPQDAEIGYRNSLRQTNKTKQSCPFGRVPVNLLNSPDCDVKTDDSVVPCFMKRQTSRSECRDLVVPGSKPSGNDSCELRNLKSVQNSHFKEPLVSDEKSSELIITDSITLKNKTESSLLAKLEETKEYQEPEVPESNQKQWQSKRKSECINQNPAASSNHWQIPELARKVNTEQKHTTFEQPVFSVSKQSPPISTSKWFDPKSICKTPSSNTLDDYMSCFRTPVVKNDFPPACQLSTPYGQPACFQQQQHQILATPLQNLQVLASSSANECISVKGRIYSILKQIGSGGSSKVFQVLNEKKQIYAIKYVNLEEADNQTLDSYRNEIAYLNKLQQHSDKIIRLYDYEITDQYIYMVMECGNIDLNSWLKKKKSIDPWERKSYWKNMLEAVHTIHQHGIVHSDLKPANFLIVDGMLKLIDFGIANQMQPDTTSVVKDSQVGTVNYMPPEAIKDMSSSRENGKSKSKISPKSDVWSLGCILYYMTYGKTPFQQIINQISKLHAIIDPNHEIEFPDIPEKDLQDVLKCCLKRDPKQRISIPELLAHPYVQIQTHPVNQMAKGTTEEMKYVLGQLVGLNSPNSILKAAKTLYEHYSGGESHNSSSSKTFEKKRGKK
From the text: as §1

ERK2 = ERK2 (Homo sapiens, UniProt P28482); experiment: Kinase profiling ERK2; details: for residual kinase activity, ERK2: 100 micromolar inhibitor concentration, 100 is no change
Chain of ERK2 (P28482 whole entry, species assumed): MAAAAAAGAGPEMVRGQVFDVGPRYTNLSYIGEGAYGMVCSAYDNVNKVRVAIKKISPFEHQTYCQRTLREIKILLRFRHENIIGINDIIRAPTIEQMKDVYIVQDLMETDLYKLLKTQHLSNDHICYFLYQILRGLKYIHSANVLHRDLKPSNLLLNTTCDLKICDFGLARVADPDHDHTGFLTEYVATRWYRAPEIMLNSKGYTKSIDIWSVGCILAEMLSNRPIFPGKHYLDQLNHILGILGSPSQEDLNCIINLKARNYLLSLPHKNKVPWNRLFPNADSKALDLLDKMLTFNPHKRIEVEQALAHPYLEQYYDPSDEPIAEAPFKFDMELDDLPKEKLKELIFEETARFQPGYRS
From the text: as §1

EPH-A2 = EPH-A2 (Homo sapiens, UniProt P29317); experiment: Kinase profiling EPH-A2; details: read-out: residual kinase activity, EPH-A2
From the text: as §1

PKA = PKA (Homo sapiens, UniProt P17612); experiment: Kinase profiling PKA; details: for residual kinase activity, PKA: 100 micromolar inhibitor concentration, 100 is no change
From the text: as §1

Lck = Lck (Homo sapiens, UniProt P06239); experiment: Kinase profiling Lck; details: read-out: residual kinase activity, Lck
Chain of Lck (P06239 whole entry, species assumed): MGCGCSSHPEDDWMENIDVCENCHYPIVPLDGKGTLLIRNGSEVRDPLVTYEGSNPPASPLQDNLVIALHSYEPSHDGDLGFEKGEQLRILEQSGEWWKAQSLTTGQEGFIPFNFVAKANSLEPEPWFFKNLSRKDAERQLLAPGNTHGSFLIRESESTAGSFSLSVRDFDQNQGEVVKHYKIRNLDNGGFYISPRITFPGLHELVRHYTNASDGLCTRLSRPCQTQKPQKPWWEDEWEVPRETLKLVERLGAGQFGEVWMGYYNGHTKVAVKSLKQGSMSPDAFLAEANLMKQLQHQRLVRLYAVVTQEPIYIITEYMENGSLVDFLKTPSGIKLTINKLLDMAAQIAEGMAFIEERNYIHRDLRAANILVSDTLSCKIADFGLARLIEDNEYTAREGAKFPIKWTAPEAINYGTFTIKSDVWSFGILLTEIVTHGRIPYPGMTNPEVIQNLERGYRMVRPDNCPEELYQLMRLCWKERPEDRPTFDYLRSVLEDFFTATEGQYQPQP
From the text: as §1

NEK6 = NEK6 (Homo sapiens, UniProt Q9HC98); experiment: Kinase profiling NEK6; details: read-out: residual kinase activity, NEK6
Chain of NEK6 (Q9HC98 whole entry, species assumed): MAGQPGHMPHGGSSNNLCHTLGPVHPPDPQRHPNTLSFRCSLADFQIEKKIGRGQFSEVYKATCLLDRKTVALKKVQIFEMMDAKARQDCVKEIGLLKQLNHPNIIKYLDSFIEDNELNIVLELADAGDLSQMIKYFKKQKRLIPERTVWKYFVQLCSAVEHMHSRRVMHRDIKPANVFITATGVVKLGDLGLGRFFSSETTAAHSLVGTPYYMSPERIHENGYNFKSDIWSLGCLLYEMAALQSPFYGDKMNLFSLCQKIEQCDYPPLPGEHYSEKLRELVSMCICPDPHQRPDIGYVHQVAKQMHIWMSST
From the text: as §1

PKCa = PKCa (Homo sapiens, UniProt P17252); experiment: Kinase profiling PKCa; details: for residual kinase activity, PKCa: 100 micromolar inhibitor concentration, 100 is no change
From the text: as §1

IGF-1R = IGF-1R (Homo sapiens, UniProt P08069); experiment: Kinase profiling IGF-1R; details: read-out: residual kinase activity, IGF-1R
From the text: as §1

MSK1 = MSK1 (Homo sapiens, UniProt O75582); experiment: Kinase profiling MSK1; details: read-out: residual kinase activity, MSK1
From the text: as §1

PKBb = PKBb (Homo sapiens, UniProt P31751); experiment: Kinase profiling PKBb; details: for residual kinase activity, PKBb: 100 micromolar inhibitor concentration, 100 is no change
Chain of PKBb (P31751 whole entry): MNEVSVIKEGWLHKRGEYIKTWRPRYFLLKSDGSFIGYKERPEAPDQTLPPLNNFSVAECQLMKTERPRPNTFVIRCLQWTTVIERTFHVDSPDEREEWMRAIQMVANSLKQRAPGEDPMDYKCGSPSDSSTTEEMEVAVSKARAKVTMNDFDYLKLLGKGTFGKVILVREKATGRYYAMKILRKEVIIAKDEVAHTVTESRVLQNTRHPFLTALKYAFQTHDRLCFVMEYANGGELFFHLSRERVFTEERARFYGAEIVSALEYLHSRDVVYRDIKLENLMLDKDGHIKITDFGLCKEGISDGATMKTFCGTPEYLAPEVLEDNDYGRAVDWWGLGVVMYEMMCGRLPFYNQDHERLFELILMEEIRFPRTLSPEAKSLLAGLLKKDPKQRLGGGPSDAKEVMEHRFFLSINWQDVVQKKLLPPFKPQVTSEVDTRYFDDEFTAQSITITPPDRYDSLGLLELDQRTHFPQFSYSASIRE
From the text: as §1

JAK2 = JAK2 (Homo sapiens, UniProt O60674); experiment: Kinase profiling JAK2; details: read-out: residual kinase activity, JAK2
Chain of JAK2 (O60674 whole entry, species assumed): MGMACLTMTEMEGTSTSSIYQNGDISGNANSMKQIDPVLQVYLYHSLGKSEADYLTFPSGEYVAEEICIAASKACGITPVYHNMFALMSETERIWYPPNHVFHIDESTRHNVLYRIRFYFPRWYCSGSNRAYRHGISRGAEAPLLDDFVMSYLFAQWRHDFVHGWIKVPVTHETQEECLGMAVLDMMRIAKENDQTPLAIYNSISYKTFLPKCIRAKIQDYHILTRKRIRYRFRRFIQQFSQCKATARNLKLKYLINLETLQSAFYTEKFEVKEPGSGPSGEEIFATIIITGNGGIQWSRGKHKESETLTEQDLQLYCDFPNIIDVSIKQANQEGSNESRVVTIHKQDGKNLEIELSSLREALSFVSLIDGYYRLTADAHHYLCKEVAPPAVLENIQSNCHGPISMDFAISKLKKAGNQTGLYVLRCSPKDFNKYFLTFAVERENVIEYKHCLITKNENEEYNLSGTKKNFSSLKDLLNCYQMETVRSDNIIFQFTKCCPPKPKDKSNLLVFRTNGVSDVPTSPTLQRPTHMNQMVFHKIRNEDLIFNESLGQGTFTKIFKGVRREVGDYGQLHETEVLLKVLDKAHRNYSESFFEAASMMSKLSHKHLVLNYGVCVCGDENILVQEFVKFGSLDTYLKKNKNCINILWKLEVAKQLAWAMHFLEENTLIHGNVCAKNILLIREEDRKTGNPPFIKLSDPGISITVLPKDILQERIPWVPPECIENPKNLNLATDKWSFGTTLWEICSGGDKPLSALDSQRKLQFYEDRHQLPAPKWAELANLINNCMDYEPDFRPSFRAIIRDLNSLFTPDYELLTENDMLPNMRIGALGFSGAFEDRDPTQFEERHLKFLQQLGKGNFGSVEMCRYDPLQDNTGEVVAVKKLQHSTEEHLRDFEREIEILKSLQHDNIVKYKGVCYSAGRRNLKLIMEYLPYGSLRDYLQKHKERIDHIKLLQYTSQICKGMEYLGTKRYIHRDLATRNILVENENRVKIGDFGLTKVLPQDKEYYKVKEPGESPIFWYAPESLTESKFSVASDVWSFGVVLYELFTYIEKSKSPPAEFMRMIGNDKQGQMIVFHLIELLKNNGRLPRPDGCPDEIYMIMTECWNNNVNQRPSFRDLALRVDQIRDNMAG
From the text: as §1

DYRK1A = DYRK1A (Homo sapiens, UniProt Q13627); experiment: DYRK 1A assay (kinase profiling); details: read-out: residual kinase activity, DYRK1A
Description: Assays are stopped by addition of 5 μl of 0.5 M (3%) orthophosphoric acid and then harvested onto P81 Unifilter plates with a wash buffer of 50 mM orthophosphoric acid.
as §1

## CC(=O)Nc1nc2cc(O)ccc2s1 [Compound 01-66, N-(5-hydroxybenzo[d]thiazol-2-yl)acetamide]
SmMLCK
  remaining activity at 100 µM: 58%
CK2
  residual kinase activity, CK2: 54
ERK1; read-out: residual kinase activity, ERK1
  remaining activity at 100 µM: 61%
HER4
  remaining activity at 100 µM: 40%
SYK
  remaining activity at 100 µM: 82%
p38d MAPK; read-out: residual kinase activity, p38d MAPK
  remaining activity at 100 µM: 70%
p38g MAPK; read-out: residual kinase activity, p38g MAPK
  remaining activity at 100 µM: 46%
JNK2; read-out: residual kinase activity, JNK2
  remaining activity at 100 µM: 63%
RSK1; read-out: residual kinase activity, RSK1
  remaining activity at 100 µM: 44%
TTK
  remaining activity at 100 µM: 39%
ERK2; read-out: residual kinase activity, ERK2
  remaining activity at 100 µM: 104%
EPH-A2
  remaining activity at 100 µM: 67%
PKA; read-out: residual kinase activity, PKA
  remaining activity at 100 µM: 95%
Lck
  remaining activity at 100 µM: 69%
NEK6
  remaining activity at 100 µM: 82%
PKCa; read-out: residual kinase activity, PKCa
  remaining activity at 100 µM: 82%
IGF-1R
  remaining activity at 100 µM: 26%
MSK1
  remaining activity at 100 µM: 62%
PKBb; read-out: residual kinase activity, PKBb
  remaining activity at 100 µM: 55%
JAK2
  remaining activity at 100 µM: 65%
DYRK1A
  remaining activity at 100 µM: 5%

## CC(=O)Nc1cccc(C(=O)Nc2nc3ccc(O)cc3s2)c1 [Compound 03-58]
ERK1
  residual kinase activity, ERK1: 84
p38d MAPK
  residual kinase activity, p38d MAPK: 75
p38g MAPK
  residual kinase activity, p38g MAPK: 64
JNK2
  residual kinase activity, JNK2: 99
RSK1
  residual kinase activity, RSK1: 35
ERK2
  residual kinase activity, ERK2: 104
PKA
  residual kinase activity, PKA: 90
PKCa
  residual kinase activity, PKCa: 96
PKBb
  residual kinase activity, PKBb: 80

## CC(=O)NC(C)C(=O)Nc1nc2ccc(C(F)(F)F)cc2s1 (stereo not drawn) [Compound 03-80]
ERK1
  residual kinase activity, ERK1: 94
p38d MAPK
  residual kinase activity, p38d MAPK: 102
p38g MAPK
  residual kinase activity, p38g MAPK: 83
JNK2
  residual kinase activity, JNK2: 87
RSK1
  residual kinase activity, RSK1: 90
ERK2
  residual kinase activity, ERK2: 101
PKA
  residual kinase activity, PKA: 104
PKCa
  residual kinase activity, PKCa: 125
PKBb
  residual kinase activity, PKBb: 93

## CC(=O)Nc1ccccc1C(=O)Nc1nc2ccc(O)cc2s1 [Compound 08-39]
ERK1
  residual kinase activity, ERK1: 18
p38d MAPK
  residual kinase activity, p38d MAPK: 67
p38g MAPK
  residual kinase activity, p38g MAPK: 90
JNK2
  residual kinase activity, JNK2: 93
RSK1
  residual kinase activity, RSK1: 30
ERK2
  residual kinase activity, ERK2: 68
PKA
  residual kinase activity, PKA: 88
PKCa
  residual kinase activity, PKCa: 43
PKBb
  residual kinase activity, PKBb: 4

## COc1ccc2sc(NC(=O)c3ccc(NC(C)=O)cc3)nc2c1 [MS:LY-2-77]
ERK1
  residual kinase activity, ERK1: 87
p38d MAPK
  residual kinase activity, p38d MAPK: 98
p38g MAPK
  residual kinase activity, p38g MAPK: 121
JNK2
  residual kinase activity, JNK2: 99
RSK1
  residual kinase activity, RSK1: 85
ERK2
  residual kinase activity, ERK2: 105
PKA
  residual kinase activity, PKA: 102
PKCa
  residual kinase activity, PKCa: 97
PKBb
  residual kinase activity, PKBb: 44

## COc1ccc2sc(NC(=O)c3cccc(NC(C)=O)c3)nc2c1 [MS:LY-2-85]
ERK1
  residual kinase activity, ERK1: 86
p38d MAPK
  residual kinase activity, p38d MAPK: 72
p38g MAPK
  residual kinase activity, p38g MAPK: 80
JNK2
  residual kinase activity, JNK2: 100
RSK1
  residual kinase activity, RSK1: 54
ERK2
  residual kinase activity, ERK2: 98
PKA
  residual kinase activity, PKA: 98
PKCa
  residual kinase activity, PKCa: 63
PKBb
  residual kinase activity, PKBb: 22

## CC(=O)Nc1ccc(C(=O)Nc2nc3cc(O)ccc3s2)cc1 [MS:LY-2-87]
ERK1
  residual kinase activity, ERK1: 70
p38d MAPK
  residual kinase activity, p38d MAPK: 75
p38g MAPK
  residual kinase activity, p38g MAPK: 93
JNK2
  residual kinase activity, JNK2: 105
RSK1
  residual kinase activity, RSK1: 29
ERK2
  residual kinase activity, ERK2: 81
PKA
  residual kinase activity, PKA: 93
PKCa
  residual kinase activity, PKCa: 59
PKBb
  residual kinase activity, PKBb: 18

## CC(=O)Nc1cccc(C(=O)Nc2nc3cc(O)ccc3s2)c1 [MS:LY-2-89]
ERK1
  residual kinase activity, ERK1: 54
p38d MAPK
  residual kinase activity, p38d MAPK: 70
p38g MAPK
  residual kinase activity, p38g MAPK: 64
JNK2
  residual kinase activity, JNK2: 93
RSK1
  residual kinase activity, RSK1: 13
ERK2
  residual kinase activity, ERK2: 68
PKA
  residual kinase activity, PKA: 87
PKCa
  residual kinase activity, PKCa: 48
PKBb
  residual kinase activity, PKBb: 7
